Laboratory results: ChEMBL document CHEMBL4138232, “O2-(2,4-dinitrophenyl)diazeniumdiolates derivatives: Design, synthesis, cytotoxic evaluation and reversing MDR in MCF-7/ADR cells” (Eur J Med Chem, 2018)

Tests used:
[1] = system: HCT-116; assay: Cytotoxicity against human HCT116 cells overexpressing GST-Pi assessed as inhibition of cell viability at 10 uM after 48 hrs by MTT assay relative to control; format: functional; details: HCT-116, 48 h
[2] = system: MDA-MB-231; assay: Antiproliferative activity against human MDA-MB-231 cells after 48 hrs by MTT assay relative to control; format: functional, cell-based; details: MDA-MB-231, 48 h
[3] = system: HCT-116; assay: Antiproliferative activity against human HCT116 cells after 48 hrs by MTT assay relative to control; format: functional, cell-based; details: HCT-116, 48 h
[4] = system: A549; assay: Antiproliferative activity against human A549 cells after 48 hrs by MTT assay relative to control; format: functional, cell-based; details: A549, 48 h
[5] = system: U2OS; assay: Antiproliferative activity against human U2OS cells after 48 hrs by MTT assay relative to control; format: functional, cell-based
[6] = system: MCF-10A; assay: Antiproliferative activity against human MCF10A cells after 48 hrs by MTT assay relative to control; format: cell-based
[7] = Selectivity ratio of IC50 for human MCF10A cells to IC50 for human MDA-MB-231 cells; format: toxicity; details: MCF10A cells versus MDA-MB-231 cells, read-out: Ratio IC50
[8] = Selectivity ratio of IC50 for human HCT116 cells to IC50 for human MDA-MB-231 cells; format: functional
[9] = Selectivity ratio of IC50 for human A549 cells to IC50 for human MDA-MB-231 cells; format: functional
[10] = Selectivity ratio of IC50 for human U2OS cells to IC50 for human MDA-MB-231 cells; format: functional
[11] = target: T1, Glutathione S-transferase P (Homo sapiens, UniProt P09211); assay: Prodrug activation in human HCT116 cells assessed as GST-Pi-mediated NO release at 5 uM after 24 hrs by nitrate reductase assay; format: cell-based
[12] = species: Homo sapiens; assay: Inhibition of MDR in human MCF7/ADR cells assessed as potentiation of adriamycin-induced antiproliferative activity by measuring fold reduction in adriamycin IC50 at 10 uM after 48 hrs by MTT assay; format: cell-based
[13] = target: T1, Glutathione S-transferase P; assay: Prodrug activation in human HCT116 cells assessed as GST-Pi-mediated NO release at 5 uM after 24 hrs in presence of NO scavenger carboxy-PTIO by nitrate reductase assay; format: cell-based
[14] = target: T1, Glutathione S-transferase P; assay: Prodrug activation in human HCT116 cells assessed as GST-Pi-mediated NO release at 5 uM after 24 hrs in presence of GST-Pi inhibitor etacrynic acid by nitrate reductase assay; format: cell-based
[15] = Cytotoxicity against ADR-sensitive human MCF7 cells assessed as inhibition of cell viability at 10 uM after 48 hrs by MTT assay relative to control; format: cell-based; details: read-out: INH
[16] = system: MCF7; assay: Cytotoxicity against ADR-sensitive human MCF7 cells assessed as inhibition of cell viability after 48 hrs by MTT assay; format: cell-based; details: MCF7, 48 h

T1 sequence (P09211 whole entry): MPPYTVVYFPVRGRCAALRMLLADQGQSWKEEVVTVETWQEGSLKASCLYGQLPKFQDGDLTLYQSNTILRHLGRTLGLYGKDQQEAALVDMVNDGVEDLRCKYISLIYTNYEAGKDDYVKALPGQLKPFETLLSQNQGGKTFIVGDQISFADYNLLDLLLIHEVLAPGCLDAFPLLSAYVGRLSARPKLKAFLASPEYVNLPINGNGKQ

Row | IC50 [2] [µM] | IC50 [3] [µM] | IC50 [4] [µM] | IC50 [5] [µM] | Drug metabolism [11] | Drug metabolism [13] | Drug metabolism [14] | Structure (SMILES) | inhibition at 10 µM [1] [%] | IC50 [6] [µM] | selectivity ratio [7] | Ratio IC50 [8] | Ratio IC50 [9] | Ratio IC50 [10] | fold change (FC) [12] | cytotoxicity at 48 h, 10 µM [15] [%] | IC50 [16] [µM]
1 | 5.29 | 3.43 | 7.66 | 6.3 | Metabolite_Detected | Metabolite_Notdetected | Metabolite_Notdetected | CC(=O)N1N=C(c2cccc(Oc3cc(O/N=[N+](\[O-])N4CCCCC4)c([N+](=O)[O-])cc3[N+](=O)[O-])c2)CC1c1ccc(N(C)C)cc1 (stereo not drawn) | 81.3 | 95.3 | 18 | 0.6 | 1.4 | 1.2 | 26.6 | 13.4 | 20.2
2 | – | – | – | – | – | – | – | CCCCCOc1ccc(C2CC(c3cccc(Oc4cc(O/N=[N+](\[O-])N5CCCCC5)c([N+](=O)[O-])cc4[N+](=O)[O-])c3)=NN2C(C)=O)cc1OC (stereo not drawn) | 63.7 | – | – | – | – | – | – | – | –
3 | – | – | – | – | – | – | – | CCCCCOc1ccc(/C=C/C(=O)c2cccc(Oc3cc(O/N=[N+](\[O-])N4CCOCC4)c([N+](=O)[O-])cc3[N+](=O)[O-])c2)cc1OC | 66.6 | – | – | – | – | – | – | – | –
4 | 6.1 | 4.59 | 5.99 | 5.77 | Metabolite_Detected | Metabolite_Notdetected | Metabolite_Notdetected | COc1ccc(/C=C/C(=O)c2cccc(Oc3cc(O/N=[N+](\[O-])N4CCOCC4)c([N+](=O)[O-])cc3[N+](=O)[O-])c2)cc1OC | 75.6 | 62.1 | 10.2 | 0.7 | 1 | 0.9 | 66.3 | 18 | 28.3
5 | – | – | – | – | – | – | – | CCCCCCOc1ccc(/C=C/C(=O)c2cccc(Oc3cc(O/N=[N+](\[O-])N4CCCCC4)c([N+](=O)[O-])cc3[N+](=O)[O-])c2)cc1OC | 16.1 | – | – | – | – | – | – | – | –
6 | 1.18 | 2.92 | 1.96 | 5.17 | – | Metabolite_Notdetected | Metabolite_Notdetected | COc1cc(/C=C/C(=O)c2cccc(Oc3cc(O/N=[N+](\[O-])N4CCOCC4)c([N+](=O)[O-])cc3[N+](=O)[O-])c2)cc(OC)c1OC | 77.6 | 13.8 | 11.7 | 2.4 | 1.7 | 4.4 | 72.3 | 21.5 | 20.9
7 | 2.03 | 4.08 | 3.15 | 5.26 | – | Metabolite_Notdetected | Metabolite_Notdetected | Cc1ccc(/C=C/C(=O)c2cccc(Oc3cc(O/N=[N+](\[O-])N4CCOCC4)c([N+](=O)[O-])cc3[N+](=O)[O-])c2)cc1 | 61.2 | 44.7 | 22 | 2 | 1.5 | 2.6 | 46.9 | 21.3 | 18.8
8 | – | – | – | – | – | – | – | CCCCOc1ccc(/C=C/C(=O)c2cccc(Oc3cc(O/N=[N+](\[O-])N4CCCCC4)c([N+](=O)[O-])cc3[N+](=O)[O-])c2)cc1OC | 58.6 | – | – | – | – | – | – | – | –
9 | – | – | – | – | – | – | – | CN(C)c1ccc(/C=C/C(=O)c2cccc(Oc3cc(O/N=[N+](\[O-])N4CCCCC4)c([N+](=O)[O-])cc3[N+](=O)[O-])c2)cc1 | 65.9 | – | – | – | – | – | – | – | –
10 | 6.15 | 5.37 | 8.58 | 9.78 | – | – | – | COc1ccc(/C=C/C(=O)c2cccc(Oc3cc(O/N=[N+](\[O-])N4CCCCC4)c([N+](=O)[O-])cc3[N+](=O)[O-])c2)cc1 | 69.5 | 113 | 18.3 | 0.9 | 1.4 | 1.6 | 1.53 | 11.2 | 71
11 | – | – | – | – | – | – | – | CCCCCOc1ccc(C2CC(c3cccc(Oc4cc(O/N=[N+](\[O-])N5CCOCC5)c([N+](=O)[O-])cc4[N+](=O)[O-])c3)=NN2C(C)=O)cc1OC (stereo not drawn) | 68.3 | – | – | – | – | – | 16.8 | 21.7 | 35.8
12 | – | – | – | – | – | – | – | CCCCOc1ccc(/C=C/C(=O)c2cccc(Oc3cc(O/N=[N+](\[O-])N4CCOCC4)c([N+](=O)[O-])cc3[N+](=O)[O-])c2)cc1OC | 70.2 | – | – | – | – | – | – | – | –
13 | – | – | – | – | – | – | – | CCCCCOc1ccc(/C=C/C(=O)c2cccc(Oc3cc(O/N=[N+](\[O-])N4CCCCC4)c([N+](=O)[O-])cc3[N+](=O)[O-])c2)cc1OC | 33 | – | – | – | – | – | – | – | –
14 | – | – | – | – | – | – | – | CCCCCCOc1ccc(C2CC(c3cccc(Oc4cc(O/N=[N+](\[O-])N5CCCCC5)c([N+](=O)[O-])cc4[N+](=O)[O-])c3)=NN2C(C)=O)cc1OC (stereo not drawn) | 48 | – | – | – | – | – | – | – | –
15 | 1.37 | 1.43 | 1.02 | 6.74 | Metabolite_Detected | Metabolite_Notdetected | Metabolite_Notdetected | COc1ccc(C2CC(c3cccc(Oc4cc(O/N=[N+](\[O-])N5CCCCC5)c([N+](=O)[O-])cc4[N+](=O)[O-])c3)=NN2C(C)=O)cc1OC (stereo not drawn) | 80.9 | 18.7 | 13.6 | 1 | 0.7 | 4.9 | 71.7 | 17.2 | 25.2
16 | – | – | – | – | – | – | – | COc1ccc(CCN(C)CCCC(C#N)(c2ccc(OC)c(OC)c2)C(C)C)cc1OC (stereo not drawn) | – | – | – | – | – | – | 29.8 | – | –
17 | – | – | – | – | – | – | – | CCCCCCOc1ccc(C2CC(c3cccc(Oc4cc(O/N=[N+](\[O-])N5CCOCC5)c([N+](=O)[O-])cc4[N+](=O)[O-])c3)=NN2C(C)=O)cc1OC (stereo not drawn) | 66.7 | – | – | – | – | – | – | – | –
18 | 3.74 | 6.31 | 5.66 | 5.22 | – | – | – | Cc1ccc(/C=C/C(=O)c2cccc(Oc3cc(O/N=[N+](\[O-])N4CCCCC4)c([N+](=O)[O-])cc3[N+](=O)[O-])c2)cc1 | 62.2 | 128 | 34.2 | 1.7 | 1.5 | 1.4 | 51.2 | 14.2 | 59.1
19 | – | – | – | – | – | – | – | CN(C)c1ccc(/C=C/C(=O)c2cccc(Oc3cc(O/N=[N+](\[O-])N4CCOCC4)c([N+](=O)[O-])cc3[N+](=O)[O-])c2)cc1 | 57.1 | – | – | – | – | – | – | – | –
20 | 3.27 | 7.78 | 6.94 | 3.55 | – | – | – | CCCCOc1ccc(C2CC(c3cccc(Oc4cc(O/N=[N+](\[O-])N5CCCCC5)c([N+](=O)[O-])cc4[N+](=O)[O-])c3)=NN2C(C)=O)cc1OC (stereo not drawn) | 72.9 | 79.7 | 24.4 | 2.4 | 2.1 | 1.1 | – | – | –
21 | 3.42 | 5.29 | 4.65 | 4.65 | – | – | – | COc1cc(/C=C/C(=O)c2cccc(Oc3cc(O/N=[N+](\[O-])N4CCCCC4)c([N+](=O)[O-])cc3[N+](=O)[O-])c2)cc(OC)c1OC | 63.7 | 80.8 | 23.6 | 1.5 | 1.4 | 1.4 | 42.5 | 19.2 | 30.4
22 | 5.34 | 4.91 | 5.9 | 5.19 | – | – | – | COc1ccc(/C=C/C(=O)c2cccc(Oc3cc(O/N=[N+](\[O-])N4CCOCC4)c([N+](=O)[O-])cc3[N+](=O)[O-])c2)cc1 | 68.7 | 16.6 | 3.1 | 0.9 | 1.1 | 1 | 64.2 | 5.4 | 29.9
23 | 11.1 | 8.88 | 9.63 | 11.4 | – | – | – | COc1ccc(/C=C/C(=O)c2cccc(Oc3cc(O/N=[N+](\[O-])N4CCCCC4)c([N+](=O)[O-])cc3[N+](=O)[O-])c2)cc1OC | 66.1 | 95.9 | 8.6 | 0.8 | 0.9 | 1 | 10.2 | 8.24 | 32.7
24 | – | – | – | – | – | – | – | CCCCCCOc1ccc(/C=C/C(=O)c2cccc(Oc3cc(O/N=[N+](\[O-])N4CCOCC4)c([N+](=O)[O-])cc3[N+](=O)[O-])c2)cc1OC | 52.4 | – | – | – | – | – | – | – | –

Row | Structure (SMILES) | IC50 [2] [µM] | IC50 [3] [µM] | IC50 [4] [µM] | IC50 [5] [µM] | Drug metabolism [11] | Drug metabolism [13] | Drug metabolism [14] | inhibition at 10 µM [1] [%] | IC50 [6] [µM] | selectivity ratio [7] | Ratio IC50 [8] | Ratio IC50 [9] | Ratio IC50 [10] | fold change (FC) [12] | cytotoxicity at 48 h, 10 µM [15] [%] | IC50 [16] [µM]
25 | CCOC(=O)N1CCN(/[N+]([O-])=N/Oc2ccc([N+](=O)[O-])cc2[N+](=O)[O-])CC1 | 5.75 | 4.86 | 6.53 | 6.27 | Metabolite_Detected | Metabolite_Notdetected | Metabolite_Notdetected | 78 | 4.91 | – | – | – | – | – | – | –
